# Values of other authors as cited in patent US7829717B2, “(Arylamidoaryl)squaramide compounds” (OSI Pharmaceuticals, Inc., priority 2004, dated 2010).
# Counter-ions that a name gives are not always drawn.
# System: MO7e human leukemia cells
compound,measurement,setting,value
"Cc1ccc(NC(=O)c2ccc(CN3CCN(C)CC3)cc2)cc1Nc1nccc(-c2cccnc2)n1 [Gleevec, imatinib mesylate]",GM-CSF stimulated growth of MO7e human leukemia cells,GM-CSF stimulated,not affected
same,Kit ligand-stimulated growth of MO7e human leukemia cells,Kit ligand-stimulated,inhibited
